Test results published in US11453652B2, “Di-macrocycles” (LUMIPHORE, INC., priority 2013, dated 2022).
{AmC3} = aminopropyl group

Experiment: Gel electrophoresis mobility shift assay of metal cation complexation
Assay type: binding
Conditions: 20% polyacrylamide gel, 8M urea; incubated 55° C. 15 minutes, HEPES pH 7.5; compared with no metal cation
Method: For use in certain applications, such as acting as a bifunctional chelating agent to attach a radioisotope to a site-directing molecule, it is necessary that the chelator be able to coordinate to the metal ion of interest in a kinetically facile and thermodynamically stable manner. […] In this experiment, a conjugate of 12 with a small (18 base length) DNA oligomer, 15 was treated with a solution containing a metal cation. The electrophoretic mobility of the conjugate on a polyacrylamide gel was then compared with that of the conjugate which was not exposed to the solution of metal cation. […] The gel electrophoretic mobility of the DNA oligomer 14 that was not conjugated to 12, present in the solution of 15, was also compared with and without exposure to the metal cation solution.
C=control, no metal cations. Y, Eu, Tb, Zr, Th=yttrium(III), europium(III), terbium(III), zirconium(IV), and thorium(IV), respectively. Arrow indicates luminescent band observed under hand held ultraviolet lamp.
In particular, a solution of DNA oligomer (3 μL, 33 μM, all concentrations final) was mixed with a solution of metal cation (2 μL, 625 μM) or an equal volume of water, additional water (2.5 μL) and a buffer solution (2.5 μL, 50 mM HEPES, pH 7.5). […]

| Substance | electrophoretic mobility following treatment with the metal cation solution |
| --- | --- |
| Conjugate 15: conjugate of di-macrocycle 12 with 18-base DNA oligonucleotide 14 (DNA AAGGTCATCCATGACAAC; DNA, backbone and methylation of C not given here; di-macrocycle 12 conjugated) | migrates more slowly |
| unmodified oligonucleotide: DNA 18-base oligonucleotide 5′-AAGGTCATCCATGACAAC-3′ with 5′-aminopropyl group, not conjugated to 12 (DNA, 5' {AmC3}, backbone and methylation of C not given here) | unaffected |
